Data taken from US4965280A, “Antifungal carbinols” (E. I. Du Pont de Nemours and Company, priority 1989, dated 1990).

Key:
Assay in all cases: Test E
WILD RADISH = type: in vivo, Raphanus raphanistrum
CTCHWD BEDSTRAW = type: in vivo, Galium aparine
BLACK NIGHTSHAD = type: in vivo, Solanum nigrum
JET RAPE = type: in vivo, Brassica napus cv. Jet Neuf
CMN CHICKWEED = type: in vivo, Stellaria media
BLACKGRASS = type: in vivo, Alopercurus mysuroides
Text: (§1) Seeds of the following crops and weeds are sown into 15 cm pots containing Sassafras sandy loam soil: wheat (Triticum aestivum cv. Park), barley (Hordeum vulgare cv. Bonanza), sugarbeet (Beta vulgaris cv. USH-11), rapeseed (Brassica napus cv. Jet Neuf), black nightshade (Solanum nigrum), chickweed (Stellaria media), lambsquarter (Chenopodium album), Galium aparine, knotweed (Polygonum aviculare), Kochia scoparia, Matricaria indora, redroot pigweed (Amaranthus retroflexus), smartweed (Polygonum persicaria), speedwell (Veronica persica), wild buckwheat (Polygonum convolvulus), wild mustard (Brassica spp.), wild radish (Raphanus raphanistrum), annual bluegrass (PO annua), annual ryegrass (Lolium multiflorum), blackgrass (Alopercurus mysuroides), green foxtail (Setaria viridis), and wild oats (Avena fatua). Compounds are formulated in a nonphytotoxic solvent and applied to the plants as a foliar spray or applied to the soil surface. Plants are treated at two stages: preemergence, or postemergence when the sugarbeets are at the 2-3 true leaf stage. Plants are grown in a temperature-controlled greenhouse for the duration of the test.
(§2) Weed control and crop injury are evaluated visually at 3-4 weeks after compound application, using a scale of 0 to 100%, where 0=no injury and 100=complete death of the plant. All plants are rated with respect to untreated plants (checks) grown in the greenhouse under identical conditions to the treated plants.

SNTLS CHAMOMILE = type: in vivo, Matricaria indora
LADY SMARTWEED = type: in vivo, Polygonum persicaria
Text: as §1, §2

Row | Structure (SMILES) | plant response (WILD RADISH; POSTEMERGENCE 0064 GM/HA) | plant response (WILD RADISH; POSTEMERGENCE 0125 GM/HA) | plant response (WILD RADISH; POSTEMERGENCE 0250 GM/HA) | plant response (WILD RADISH; POSTEMERGENCE 0500 GM/HA) | plant response (WILD RADISH; PREEMERGENCE 0500 GM/HA) | plant response (CTCHWD BEDSTRAW; POSTEMERGENCE 0064 GM/HA) | plant response (CTCHWD BEDSTRAW; POSTEMERGENCE 0125 GM/HA) | plant response (CTCHWD BEDSTRAW; POSTEMERGENCE 0250 GM/HA) | plant response (CTCHWD BEDSTRAW; POSTEMERGENCE 0500 GM/HA) | plant response (CTCHWD BEDSTRAW; PREEMERGENCE 0500 GM/HA) | plant response (BLACK NIGHTSHAD; POSTEMERGENCE 0064 GM/HA) | plant response (BLACK NIGHTSHAD; POSTEMERGENCE 0125 GM/HA) | plant response (BLACK NIGHTSHAD; POSTEMERGENCE 0250 GM/HA) | plant response (BLACK NIGHTSHAD; POSTEMERGENCE 0500 GM/HA) | plant response (BLACK NIGHTSHAD; PREEMERGENCE 0500 GM/HA) | plant response (JET RAPE; POSTEMERGENCE 0064 GM/HA) | plant response (JET RAPE; POSTEMERGENCE 0125 GM/HA) | plant response (JET RAPE; POSTEMERGENCE 0250 GM/HA) | plant response (JET RAPE; POSTEMERGENCE 0500 GM/HA) | plant response (JET RAPE; PREEMERGENCE 0500 GM/HA) | also measured
1 | C=C(c1ccccc1)C(O)(Cn1cncn1)c1ccc(Cl)cc1 (centres unmarked) [Example 51, 2-(4-Chlorophenyl)-3-phenyl-1-(1H-1,2,4-triazol-1-yl)-3-buten-2-ol] | 0% | 30% | 30% | 60% | 0% | 0% | 0% | 0% | 50% | 0% | 0% | 0% | 40% | 60% | 100% | 0% | 0% | 0% | 20% | 0% | plant response (CMN CHICKWEED; POSTEMERGENCE 0064 GM/HA): 0%; plant response (CMN CHICKWEED; POSTEMERGENCE 0125 GM/HA): 0%; plant response (CMN CHICKWEED; POSTEMERGENCE 0250 GM/HA): 0%; plant response (CMN CHICKWEED; POSTEMERGENCE 0500 GM/HA): 0%; plant response (CMN CHICKWEED; PREEMERGENCE 0500 GM/HA): 0%; plant response (BLACKGRASS; POSTEMERGENCE 0064 GM/HA): 0%; plant response (BLACKGRASS; POSTEMERGENCE 0125 GM/HA): 0%; plant response (BLACKGRASS; POSTEMERGENCE 0250 GM/HA): 0%; plant response (BLACKGRASS; POSTEMERGENCE 0500 GM/HA): 0%; plant response (BLACKGRASS; PREEMERGENCE 0500 GM/HA): 0%; plant response (SNTLS CHAMOMILE; POSTEMERGENCE 0064 GM/HA): 0%; plant response (SNTLS CHAMOMILE; POSTEMERGENCE 0125 GM/HA): 20%; plant response (SNTLS CHAMOMILE; POSTEMERGENCE 0250 GM/HA): 40%; plant response (SNTLS CHAMOMILE; POSTEMERGENCE 0500 GM/HA): 60%; plant response (SNTLS CHAMOMILE; PREEMERGENCE 0500 GM/HA): 100%
2 | C=C(c1ccc(F)cc1)C(O)(Cn1cncn1)c1ccccc1F (centres unmarked) [Example 644] | 20% | 30% | 50% | 80% | 0% | 0% | 30% | 30% | 30% | 0% | 0% | 0% | 10% | 20% | 0% | 0% | 0% | 0% | 30% | 20% | plant response (LADY SMARTWEED; POSTEMERGENCE 0064 GM/HA): 0%; plant response (LADY SMARTWEED; POSTEMERGENCE 0125 GM/HA): 100%; plant response (LADY SMARTWEED; POSTEMERGENCE 0250 GM/HA): 100%; plant response (LADY SMARTWEED; POSTEMERGENCE 0500 GM/HA): 100%; plant response (CMN CHICKWEED; POSTEMERGENCE 0064 GM/HA): 0%; plant response (CMN CHICKWEED; POSTEMERGENCE 0125 GM/HA): 0%; plant response (CMN CHICKWEED; POSTEMERGENCE 0250 GM/HA): 0%; plant response (CMN CHICKWEED; POSTEMERGENCE 0500 GM/HA): 0%; plant response (CMN CHICKWEED; PREEMERGENCE 0500 GM/HA): 20%; plant response (BLACKGRASS; POSTEMERGENCE 0064 GM/HA): 0%; plant response (BLACKGRASS; POSTEMERGENCE 0125 GM/HA): 0%; plant response (BLACKGRASS; POSTEMERGENCE 0250 GM/HA): 30%; plant response (BLACKGRASS; POSTEMERGENCE 0500 GM/HA): 50%; plant response (BLACKGRASS; PREEMERGENCE 0500 GM/HA): 20%; plant response (SNTLS CHAMOMILE; POSTEMERGENCE 0064 GM/HA): 20%; plant response (SNTLS CHAMOMILE; POSTEMERGENCE 0125 GM/HA): 50%; plant response (SNTLS CHAMOMILE; POSTEMERGENCE 0250 GM/HA): 50%; plant response (SNTLS CHAMOMILE; POSTEMERGENCE 0500 GM/HA): 90%; plant response (SNTLS CHAMOMILE; PREEMERGENCE 0500 GM/HA): 100%
